Measurements as given in the supplement of paper PMC10307832.

What was measured:
Experiment in all cases: relative viability (nuclei count vs DMSO), 5 days (fraction); higher = more cells survive
Decitabine + Luminespib = compound: Nc1ncn([C@H]2C[C@H](O)[C@@H](CO)O2)c(=O)n1 [Decitabine] + CCNC(=O)c1noc(-c2cc(C(C)C)c(O)cc2O)c1-c1ccc(CN2CCOCC2)cc1 [Luminespib] (partner 0.01 µM)
In short: (§1)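 Relative viability was taken as the ratio of nuclei in treated wells to nuclei in vehicle wells. Lung cancer cell lines in 1536-well plates received compounds by pin tool one day after seeding, either one drug alone or a fixed anchor-drug dose plus five library-drug doses (not always all listed) in √10 steps. Nuclei were counted on 4× images after 5 days of treatment, and values are medians of duplicate plates.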

Decitabine + Bortezomib = compound: Nc1ncn([C@H]2C[C@H](O)[C@@H](CO)O2)c(=O)n1 [Decitabine] + CC(C)C[C@H](NC(=O)[C@H](Cc1ccccc1)NC(=O)c1cnccn1)B(O)O [Bortezomib] (partner 0.002 µM)
In short: as §1

Cediranib + Luminespib = compound: COc1cc2c(Oc3ccc4[nH]c(C)cc4c3F)ncnc2cc1OCCCN1CCCC1 [Cediranib] + CCNC(=O)c1noc(-c2cc(C(C)C)c(O)cc2O)c1-c1ccc(CN2CCOCC2)cc1 [Luminespib] (partner 0.01 µM)
In short: as §1

[1] = compound: O=C(C[C@H]1NCCC[C@@H]1O)Cn1cnc2cc(Br)c(Cl)cc2c1=O (racemic) [Halofuginone] + O=C(CCCCCCC(=O)Nc1ccccc1)NO [Vorinostat] (partner 1 µM)
In short: as §1

Row | Cell Line | relative viability (Decitabine + Luminespib; first compound 0.04 µM) | relative viability (Decitabine + Luminespib; first compound 0.1265 µM) | relative viability (Decitabine + Luminespib; first compound 0.4 µM) | relative viability (Decitabine + Luminespib; first compound 1.265 µM) | relative viability (Decitabine + Luminespib; first compound 4 µM) | relative viability (Decitabine + Bortezomib; first compound 0.04 µM) | relative viability (Decitabine + Bortezomib; first compound 0.1265 µM) | relative viability (Decitabine + Bortezomib; first compound 0.4 µM) | relative viability (Decitabine + Bortezomib; first compound 1.265 µM) | relative viability (Decitabine + Bortezomib; first compound 4 µM) | relative viability (Cediranib + Luminespib; first compound 0.04 µM) | relative viability (Cediranib + Luminespib; first compound 0.1265 µM) | relative viability (Cediranib + Luminespib; first compound 0.4 µM) | relative viability (Cediranib + Luminespib; first compound 1.265 µM) | relative viability (Cediranib + Luminespib; first compound 4 µM) | relative viability ([1]; first compound 0.001 µM) | relative viability ([1]; first compound 0.003162 µM) | relative viability ([1]; first compound 0.01 µM) | relative viability ([1]; first compound 0.03162 µM) | relative viability ([1]; first compound 0.1 µM)
1 | NCI-H2228 | 0.102 | 0.134 | 0.116 | 0.148 | 0.165 | 0.788 | 0.755 | 0.389 | 0.314 | 0.229 | 0.118 | 0.176 | 0.129 | 0.144 | 0.14 | 0.822 | 0.807 | 0.726 | 0.424 | 0.0673
2 | NCI-H2347 | 0.472 | 0.393 | 0.515 | 0.453 | 0.36 | – | 0.768 | 0.844 | 0.525 | 0.572 | 0.321 | 0.404 | 0.637 | 0.506 | 0.747 | 0.769 | 0.561 | 0.55 | 0.611 | 0.395
3 | NCI-H2405 | 0.798 | 0.654 | 0.59 | 0.431 | 0.445 | 0.88 | 0.905 | 0.828 | 0.66 | 0.538 | 0.897 | 0.712 | 0.649 | 0.657 | 0.532 | 1.07 | 1.06 | 1.02 | 0.958 | 0.577
4 | NCI-H3122 | 0.0814 | 0.0807 | 0.0785 | 0.0889 | 0.0802 | 0.973 | 0.987 | 0.968 | 0.782 | 0.725 | 0.0861 | 0.09 | 0.0816 | 0.0839 | 0.12 | 0.924 | 1.13 | 0.938 | 1.01 | 1.06
5 | PC-3 [JPC-3] | 0.43 | 0.708 | 0.454 | 0.408 | 0.488 | – | 0.6 | 0.458 | 0.462 | 0.389 | 0.649 | 0.654 | 0.665 | 0.735 | 0.449 | 0.84 | 0.769 | 0.693 | 0.929 | 0.683
6 | PC-14 | 0.145 | 0.227 | 0.173 | 0.168 | 0.131 | 0.35 | 0.507 | 0.369 | 0.221 | 0.168 | 0.137 | 0.16 | 0.154 | 0.108 | 0.119 | 0.803 | 0.626 | 0.646 | 0.292 | 0.0442
7 | RERF-LC-KJ | 1.18 | 1.01 | – | 0.582 | 0.685 | 1.05 | 0.931 | 0.525 | 0.824 | 0.779 | 1.39 | 1.15 | 1.27 | 1.25 | 1.25 | 0.8 | 0.675 | 0.605 | 0.718 | 0.604
8 | SK-LU-1 | 0.18 | 0.212 | 0.196 | 0.204 | 0.208 | 0.781 | 0.849 | 0.251 | 0.516 | 0.503 | 0.203 | 0.195 | 0.183 | 0.203 | 0.194 | 0.835 | 0.818 | 0.839 | 0.787 | 0.368
9 | SW 1573 | 0.135 | 0.172 | 0.201 | 0.143 | 0.151 | 0.969 | 0.895 | 0.99 | 0.575 | 0.382 | 0.347 | 0.324 | 0.256 | 0.21 | 0.24 | 1.27 | – | 0.775 | 0.601 | 0.167
